Measurements published in patent US20220151230A1, “SPECIFICALLY SUBSTITUTED 3-(2-HALOGEN-6-ALKYL-4-PROPINYLPHENYL)-3-PYRROLIN-2-ONES AND TO THE USE THEREOF AS HERBICIDES” (Bayer Aktiengesellschaft, priority 2019, published 2022).

Columns and labels:
SETVI [1] = assay: Post-emergence herbicidal effect against SETVI; format: in vivo, Setaria viridis; details: one-leaf stage, 80 g/ha, assessed visually after about 3 weeks vs untreated controls, 100% = plants have died
Protocol: (§1) Seeds of monocotyledonous and dicotyledonous weed and crop plants are laid out in sandy loam soil in wood-fiber pots, covered with soil and cultivated in a greenhouse under good growth conditions. 2 to 3 weeks after sowing, the test plants are treated at the one-leaf stage. The compounds of the invention, formulated in the form of wettable powders (WP) or as emulsion concentrates (EC), are then sprayed onto the green parts of the plants as aqueous suspension or emulsion at a water application rate equating to 600 to 800 l/ha with addition of 0.2% wetting agent. After the test plants have been left to stand in the greenhouse under optimal growth conditions for about 3 weeks, the action of the preparations is assessed visually in comparison to untreated controls (herbicidal action in percent (%): 100% activity=the plants have died, 0% activity=like control plants).

ECHCG [2] = assay: Pre-emergence herbicidal effect against ECHCG; format: in vivo, Echinochloa crus-galli; details: 320 g/ha, scored visually after 3 weeks vs untreated controls, 100% = plants have died
Text: (§2) Seeds of monocotyledonous and dicotyledonous weed plants and crop plants are laid out in sandy loam soil in wood-fiber pots and covered with soil. The compounds of the invention, formulated in the form of wettable powders (WP) or as emulsion concentrates (EC), are then applied to the surface of the covering soil as aqueous suspension or emulsion at a water application rate equating to 600 to 800 L/ha with addition of 0.2% wetting agent.
(§3) After the treatment, the pots are placed in a greenhouse and kept under good growth conditions for the trial plants. The damage to the test plants is scored visually after a test period of 3 weeks by comparison with untreated controls (herbicidal activity in percent (%): 100% activity=the plants have died, 0% activity=like control plants).

ALOMY [3] = assay: Post-emergence herbicidal effect against ALOMY; format: in vivo, Alopecurus myosuroides; details: one-leaf stage, 80 g/ha, assessed visually after about 3 weeks vs untreated controls, 100% = plants have died
Protocol: as §1

LOLRI [4] = assay: Pre-emergence herbicidal effect against LOLRI; format: in vivo, Lolium rigidum; details: 320 g/ha, scored visually after 3 weeks vs untreated controls, 100% = plants have died
Text: as §2, §3

ALOMY [5] = assay: Pre-emergence herbicidal effect against ALOMY; format: in vivo, Alopecurus myosuroides; details: 320 g/ha, scored visually after 3 weeks vs untreated controls, 100% = plants have died
Text: as §2, §3

SETVI [6] = assay: Pre-emergence herbicidal effect against SETVI; format: in vivo, Setaria viridis; details: 320 g/ha, scored visually after 3 weeks vs untreated controls, 100% = plants have died
Text: as §2, §3

AVEFA [7] = assay: Pre-emergence herbicidal effect against AVEFA; format: in vivo, Avena fatua; details: 320 g/ha, scored visually after 3 weeks vs untreated controls, 100% = plants have died
Text: as §2, §3

DIGSA [8] = assay: Pre-emergence herbicidal effect against DIGSA; format: in vivo, Digitaria sanguinalis; details: 320 g/ha, scored visually after 3 weeks vs untreated controls, 100% = plants have died
Text: as §2, §3

DIGSA [9] = assay: Post-emergence herbicidal effect against DIGSA; format: in vivo, Digitaria sanguinalis; details: one-leaf stage, 80 g/ha, assessed visually after about 3 weeks vs untreated controls, 100% = plants have died
Protocol: as §1

ECHCG [10] = assay: Post-emergence herbicidal effect against ECHCG; format: in vivo, Echinochloa crus-galli; details: one-leaf stage, 80 g/ha, assessed visually after about 3 weeks vs untreated controls, 100% = plants have died
Protocol: as §1

LOLRI [11] = assay: Post-emergence herbicidal effect against LOLRI; format: in vivo, Lolium rigidum; details: one-leaf stage, 80 g/ha, assessed visually after about 3 weeks vs untreated controls, 100% = plants have died
Protocol: as §1

AVEFA [12] = assay: Post-emergence herbicidal effect against AVEFA; format: in vivo, Avena fatua; details: one-leaf stage, 80 g/ha, assessed visually after about 3 weeks vs untreated controls, 100% = plants have died
Protocol: as §1

| Compound | Post-emergence action [%] against SETVI (SETVI [1]) | Pre-emergence action [%] against ECHCG (ECHCG [2]) | Post-emergence action [%] against ALOMY (ALOMY [3]) | Pre-emergence action [%] against LOLRI (LOLRI [4]) | Pre-emergence action [%] against ALOMY (ALOMY [5]) | Pre-emergence action [%] against SETVI (SETVI [6]) | Pre-emergence action [%] against AVEFA (AVEFA [7]) | Pre-emergence action [%] against DIGSA (DIGSA [8]) | Post-emergence action [%] against DIGSA (DIGSA [9]) | Post-emergence action [%] against ECHCG (ECHCG [10]) | Post-emergence action [%] against LOLRI (LOLRI [11]) | Post-emergence action [%] against AVEFA (AVEFA [12]) |
| --- | --- | --- | --- | --- | --- | --- | --- | --- | --- | --- | --- | --- |
| CC#Cc1cc(C)c(C2=C(OC(=O)C(C)C)C3(CCC(CC)CC3)NC2=O)c(Cl)c1 (centres unmarked) [Example P1, 3-[2-Chloro-6-methyl-4-(prop-1-yn-1-yl)phenyl]-8-ethyl-2-oxo-1-azaspiro[4.5]dec-3-en-4-yl 2-methylpropanoate] | 100% |  |  |  |  |  |  |  |  |  |  |  |
| CC#Cc1cc(Cl)c(C2=C(OC(=O)OCC)C3(CCC(OCCOC)CC3)NC2=O)c(CC)c1 (centres unmarked) [Example P23] | 80% | 100% | 80% | 100% | 100% | 100% | 80% | 100% |  |  |  |  |
| CC#Cc1cc(Br)c(C2=C(OC(=O)OCC)C3(CCCC(OCCOC)C3)NC2=O)c(C2CC2)c1 (centres unmarked) [Example Q2] | 100% | 100% | 100% | 100% | 100% | 100% | 100% | 100% | 100% | 100% | 100% |  |
| CC#Cc1cc(Cl)c(C2=C(OC(=O)C(C)C)C3(CCC(OCCOC)CC3)NC2=O)c(CC)c1 (centres unmarked) [Example P32] | 90% | 100% |  | 90% | 100% | 100% |  | 90% |  |  |  |  |
| CC#Cc1cc(Br)c(C2=C(OC(=O)OCC)C3(CCC(OC)CC3)NC2=O)c(CC)c1 (centres unmarked) [Example P34] | 100% |  | 100% |  |  | 100% |  |  |  | 90% |  |  |
| CC#Cc1cc(Cl)c(C2=C(OC(=O)OC(C)(C)C)C3(CCC(OC)CC3)NC2=O)c(CC)c1 (centres unmarked) [Example P30] | 100% | 90% | 90% | 100% | 100% | 100% | 80% | 100% |  |  |  | 80% |
| CC#Cc1cc(Br)c(C2=C(O)C3(CCCC(OCCOC)C3)NC2=O)c(CC)c1 (centres unmarked) [Example D8] | 90% |  | 100% |  | 80% | 100% |  |  |  | 90% | 80% | 80% |
| CC#Cc1cc(C)c(C2=C(OC(=O)OCC)C3(CCCC(OCCOC)C3)NC2=O)c(Br)c1 (centres unmarked) [Example Q4] | 100% | 100% | 100% | 100% | 100% | 100% | 100% | 100% |  | 100% | 100% | 90% |
| CC#Cc1cc(C)c(C2=C(OC(=O)OCC)C3(CCCC(OCCC)C3)NC2=O)c(Br)c1 (centres unmarked) [Example Q3] | 100% | 100% | 100% | 100% | 100% | 100% | 100% | 100% | 100% | 100% | 100% |  |
| CC#Cc1cc(Br)c(C2=C(OC(=O)OCC)C3(CCCC(OCCOC)C3)NC2=O)c(CC)c1 (centres unmarked) [Example Q1] | 90% |  | 80% | 90% | 90% | 100% |  |  |  |  |  |  |
| CC#Cc1cc(Cl)c(C2=C(OC(=O)OC)C3(CCC(OCCOC)CC3)NC2=O)c(CC)c1 (centres unmarked) [Example P28] | 80% | 100% |  |  | 100% | 100% | 80% | 100% |  | 80% |  |  |
| CC#Cc1cc(C)c(C2=C(OC(=O)OC(C)(C)C)C3(CCCC(OCC(C)C)C3)NC2=O)c(Cl)c1 (centres unmarked) [Example Q7] |  |  |  |  | 80% | 100% |  |  |  |  |  |  |
| CC#Cc1cc(Cl)c(C2=C(OC(=O)OCC)C3(CCC(OCC)CC3)NC2=O)c(CC)c1 (centres unmarked) [Example P22] | 100% | 100% |  | 100% | 100% | 100% | 90% | 100% | 90% | 90% |  |  |
| CC#Cc1cc(Cl)c(C2=C(OC(=O)OC)C3(CCC(OCC)CC3)NC2=O)c(CC)c1 (centres unmarked) [Example P26] | 90% | 90% | 90% | 100% | 100% | 100% | 90% | 100% | 80% | 100% |  |  |
| CC#Cc1cc(Br)c(C2=C(OC(=O)OCC)C3(CCC(OC)CC3)NC2=O)c(C2CC2)c1 (centres unmarked) [Example P35] | 100% | 100% | 100% | 100% | 100% | 100% | 100% | 100% | 100% | 100% | 100% |  |
| CC#Cc1cc(Cl)c(C2=C(OC(=O)C(C)C)C3(CCC(OC)CC3)NC2=O)c(CC)c1 (centres unmarked) [Example P25] | 100% | 100% | 90% | 90% | 100% | 100% | 100% | 100% | 100% | 100% |  |  |
| CC#Cc1cc(Cl)c(C2=C(OC(=O)OC(C)(C)C)C3(CCC(OCCOC)CC3)NC2=O)c(CC)c1 (centres unmarked) [Example P29] | 90% | 90% |  |  | 80% | 80% | 80% | 90% |  | 90% |  |  |
| CC#Cc1cc(Cl)c(C2=C(OC(=O)C(C)C)C3(CCC(OCC)CC3)NC2=O)c(CC)c1 (centres unmarked) [Example P31] | 100% | 100% | 100% | 100% | 100% | 100% | 90% | 100% |  |  |  |  |
